The results in this text go back to patent publication US20150157739A1, “Imidazo[2,1]thiazol-3-one derivatives” (Hoffmann-La Roche Inc., priority 2012, published 2015).

For assay [1], the target named is T1, aggregated synthetic Aβ40 (Homo sapiens, UniProt P05067).
T1 construct: Synthetic Aβ40 is aggregated at a concentration of 50 μM
The assay is described as follows: Thiazin-red R displacement fluorescence assay on aggregated A-beta. Format: binding. As to conditions: displacement of Thiazin-red R from aggregated Aβ40; compound 0.3 nM to 10000 nM; 30 min room temperature; Ex 531 nm/Em 595 nm.

The target in assay [2] is T2, aggregated recombinant human-microtubule associated protein Tau (Homo sapiens, UniProt P10636).
T2 construct: Recombinant human-microtubule associated protein Tau purified from E. coli is aggregated at a concentration of 5 μM with Arachidonic Acid (100 μM) in Tris 10 mM pH8, 24 h at 37° C
T2 sequence (P10636 whole entry): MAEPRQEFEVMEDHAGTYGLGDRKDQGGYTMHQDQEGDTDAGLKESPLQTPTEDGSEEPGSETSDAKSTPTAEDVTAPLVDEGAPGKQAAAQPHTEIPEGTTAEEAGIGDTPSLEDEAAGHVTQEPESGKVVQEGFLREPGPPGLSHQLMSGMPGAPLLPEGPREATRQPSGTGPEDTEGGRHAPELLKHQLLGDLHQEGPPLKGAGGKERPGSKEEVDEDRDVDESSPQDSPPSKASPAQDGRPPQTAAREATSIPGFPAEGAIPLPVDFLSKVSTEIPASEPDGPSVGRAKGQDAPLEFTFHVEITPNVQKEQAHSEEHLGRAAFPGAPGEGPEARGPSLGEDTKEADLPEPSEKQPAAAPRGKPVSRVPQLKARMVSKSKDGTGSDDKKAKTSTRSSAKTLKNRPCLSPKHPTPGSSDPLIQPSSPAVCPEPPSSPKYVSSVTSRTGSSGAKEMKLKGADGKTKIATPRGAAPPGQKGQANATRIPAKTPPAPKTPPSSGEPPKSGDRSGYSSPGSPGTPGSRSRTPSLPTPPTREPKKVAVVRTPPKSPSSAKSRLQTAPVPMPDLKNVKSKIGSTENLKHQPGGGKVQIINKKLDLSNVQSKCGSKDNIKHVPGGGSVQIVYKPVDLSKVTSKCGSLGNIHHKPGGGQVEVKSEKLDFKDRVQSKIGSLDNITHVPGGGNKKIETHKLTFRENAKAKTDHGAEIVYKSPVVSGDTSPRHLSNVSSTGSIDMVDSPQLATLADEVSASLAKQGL
The assay is described as follows: Thiazin-red R displacement fluorescence assay on aggregated Tau. Format: binding. As to conditions: displacement of Thiazin-red R from aggregated Tau; compound 0.3 nM to 10000 nM; 30 min room temperature; Ex 531 nm/Em 595 nm.

T1 sequence (P05067 672-711 limits assumed): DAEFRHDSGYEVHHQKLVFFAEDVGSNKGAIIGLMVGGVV

With `COc1cc(/C=c2\sc3nc(-c4ccnc(C)c4)cn3c2=O)cc(F)c1O` [Example 76, 2-[1-(3-Fluoro-4-hydroxy-5-methoxy-phenyl)-meth-(Z)-ylidene]-6-(2-methylpyridin-4-yl)-imidazo[2,1-b]thiazol-3-one], the IC50 (as a rule, the midpoint of a concentration-inhibition curve) in assay [1] was 260 nM; in assay [2] it was 6 nM.

On to `C=CCNC(=O)c1cccc(-c2cn3c(=O)/c(=C/c4cc(Cl)c(O)c(OC)c4)sc3n2)c1` [Example 113, N-Allyl-3-{2-[1-(3-chloro-4-hydroxy-5-methoxy-phenyl)-meth-(Z)-ylidene]-3-oxo-2,3-dihydro-imidazo[2,1-b]thiazol-6-yl}-benzamide], for which the results for the 50% inhibitory concentration (IC50) in assay [1] and in assay [2] were 1160 nM and 16 nM, respectively.

As for `COc1cc(/C=c2\sc3nc(-c4ccc(Cl)cc4)cn3c2=O)cc(OC)c1O` [Example 2, 6-(4-Chloro-phenyl)-2-[1-(4-hydroxy-3,5-dimethoxy-phenyl)-meth-(Z)-ylidene]-imidazo[2,1-b]thiazol-3-one], the half-inhibitory concentration (IC50) in assay [1] is 7 nM; in assay [2] it was 2 nM.

On to `COc1cc(/C=c2\sc3nc(-c4ccc(C(=O)N(C)CCCF)cc4)cn3c2=O)cc(Cl)c1O` [Example 137], for which the values for the IC50 in assay [1] and in assay [2] were 332 nM and 7 nM, respectively.

As to `COc1cccc(-c2cn3c(=O)/c(=C/c4cc(F)c(O)c(OC)c4)sc3n2)n1` [Example 48, 2-[1-(3-Fluoro-4-hydroxy-5-methoxy-phenyl)-meth-(Z)-ylidene]-6-(6-methoxy-pyridin-2-yl)-imidazo[2,1-b]thiazol-3-one], the results for the IC50 in assay [1] and in assay [2] were 1790 nM and 20 nM, respectively.

On to `Cc1cc(-c2cn3c(=O)/c(=C/c4cc(Cl)c(O)c(OCCCF)c4)sc3n2)cc(C)n1` [Example 153, 2-[1-[3-Chloro-5-(3-fluoro-propoxy)-4-hydroxy-phenyl]-meth-(Z)-ylidene]-6-(2,6-dimethyl-pyridin-4-yl)-imidazo[2,1-b]thiazol-3-one], for which the IC50 is 605 nM in assay [1] and 46 nM in assay [2].

Consider `COc1cc(/C=c2\sc3nc(-c4ccnc(C)c4)cn3c2=O)cc(Br)c1O` [Example 77, 2-[1-(3-Bromo-4-hydroxy-5-methoxy-phenyl)-meth-(Z)-ylidene]-6-(2-methylpyridin-4-yl)-imidazo[2,1-b]thiazol-3-one], for which the IC50 in assay [1] came out at 76 nM; in assay [2], 1 nM.

On to `COc1cc(/C=c2\sc3nc(-c4ccncc4)cn3c2=O)cc(F)c1O` [Example 69, 2-[1-(3-Fluoro-4-hydroxy-5-methoxy-phenyl)-meth-(Z)-ylidene]-6-(pyridin-4-yl)-imidazo[2,1-b]thiazol-3-one], for which the figures for the concentration for half-maximal inhibition (IC50) in assay [1] and in assay [2] were 620 nM and 20 nM, respectively.

For the molecule `COc1cc(/C=c2\sc3nc(-c4ccc(Cl)cc4)cn3c2=O)cc(Cl)c1O` [Example 6, 6-(4-Chloro-phenyl)-2-[1-(3-chloro-4-hydroxy-5-methoxy-phenyl)-meth-(Z)-ylidene]-imidazo[2,1-b]thiazol-3-one], the IC50 stood at 32 nM in assay [1] and 2 nM in assay [2].

Turning to `COc1ccc(-c2cn3c(=O)/c(=C/c4cc(Cl)c(O)c(OC)c4)sc3n2)cc1OC` [Example 99, 2-[1-(3-Chloro-4-hydroxy-5-methoxy-phenyl)-meth-(Z)-ylidene]-6-(3,4-dimethoxy-phenyl)-imidazo[2,1-b]thiazol-3-one], the figures for the IC50 in assay [1] and in assay [2] were 325 nM and 14 nM, respectively.

For the molecule `COc1cc(/C=c2\sc3nc(-c4ccc(NC(C)=O)cc4)cn3c2=O)cc(Cl)c1O` [Example 103, N-(4-{2-[1-(3-Chloro-4-hydroxy-5-methoxy-phenyl)-meth-(Z)-ylidene]-3-oxo-2,3-dihydro-imidazo[2,1-b]thiazol-6-yl}-phenyl)-acetamide], the IC50 was 1160 nM in assay [1] and 24 nM in assay [2].

Regarding `CCCOc1cc(/C=c2\sc3nc(-c4cnccn4)cn3c2=O)cc(Cl)c1O` [Example 129, 2-[1-(3-Chloro-4-hydroxy-5-propoxy-phenyl)-meth-(Z)-ylidene]-6-pyrazin-2-yl-imidazo[2,1-b]thiazol-3-one], the results for the 50% inhibitory concentration (IC50) in assay [1] and in assay [2] were 2220 nM and 64 nM, respectively.

For the molecule `COc1cc(/C=c2\sc3nc(-c4cccc(C(=O)O)c4)cn3c2=O)cc(Cl)c1O` [Example 104, 3-{2-[1-(3-Chloro-4-hydroxy-5-methoxy-phenyl)-meth-(Z)-ylidene]-3-oxo-2,3-dihydro-imidazo[2,1-b]thiazol-6-yl}-benzoic acid], the figures for the concentration for half-maximal inhibition (IC50) in assay [1] and in assay [2] were greater than 10000 nM and 19 nM, respectively.

In the case of `COc1cc(/C=c2\sc3nc(-c4cccc(C(N)=O)c4)cn3c2=O)cc(F)c1O` [Example 121, 3-{2-[1-(3-Fluoro-4-hydroxy-5-methoxy-phenyl)-meth-(Z)-ylidene]-3-oxo-2,3-dihydro-imidazo[2,1-b]thiazol-6-yl}-benzamide], the half-inhibitory concentration (IC50) was determined as 591 nM in assay [1] and 19 nM in assay [2].

`COc1cccc(-c2cn3c(=O)/c(=C/c4cc(F)c(O)c(OC)c4)sc3n2)c1` [Example 47, 2-[1-(3-Fluoro-4-hydroxy-5-methoxy-phenyl)-meth-(Z)-ylidene]-6-(3-methoxy-phenyl)-imidazo[2,1-b]thiazol-3-one]: the figures for the half-maximal inhibitory concentration (IC50) in assay [1] and in assay [2] were 540 nM and 17 nM, respectively.

`COc1cc(/C=c2\sc3nc(-c4ccnc(C)c4)cn3c2=O)cc(OC)c1O` [Example 16, 2-[1-(4-Hydroxy-3,5-dimethoxy-phenyl)-meth-(Z)-ylidene]-6-(2-methyl-pyridin-4-yl)-imidazo[2,1-b]thiazol-3-one]: the concentration for half-maximal inhibition (IC50) was 32 nM in assay [1] and 8 nM in assay [2].

Take `CCOc1cc(/C=c2\sc3nc(-c4ccc(Cl)cc4)cn3c2=O)cc(OC)c1O` [Example 26, 6-(4-Chloro-phenyl)-2-[1-(3-ethoxy-4-hydroxy-5-methoxy-phenyl)-meth-(Z)-ylidene]-imidazo[2,1-b]thiazol-3-one]: the IC50 was found to be 4 nM in assay [1] and 2 nM in assay [2].

Take `COc1cc(/C=c2\sc3nc(-c4ccc(C(=O)N5CCC(F)CC5)cc4)cn3c2=O)cc(Cl)c1O` [Example 127, 2-[1-(3-Chloro-4-hydroxy-5-methoxy-phenyl)-meth-(Z)-ylidene]-6-[4-(4-fluoro-piperidine-1-carbonyl)-phenyl]-imidazo[2,1-b]thiazol-3-one]: the IC50 in assay [1] is 118 nM; in assay [2], 6 nM.

With `COc1cc(/C=c2\sc3nc(-c4ccnc(C)c4)cn3c2=O)cc(Cl)c1O` [Example 75, 2-[1-(3-Chloro-4-hydroxy-5-methoxy-phenyl)-meth-(Z)-ylidene]-6-(2-methylpyridin-4-yl)-imidazo[2,1-b]thiazol-3-one], the IC50 in assay [1] stood at 122 nM; in assay [2], 1.3 nM.

Regarding `COc1cc(/C=c2\sc3nc(-c4cccc(CCl)c4)cn3c2=O)cc(Cl)c1O` [Example 67, 2-[1-(3-Chloro-4-hydroxy-5-methoxy-phenyl)-meth-(Z)-ylidene]-6-(3-(chloromethyl)phenyl)-imidazo[2,1-b]thiazol-3-one], the IC50 is 9 nM in assay [1] and 0.8 nM in assay [2].

`CCCOc1cc(/C=c2\sc3nc(-c4ccc(Cl)cc4)cn3c2=O)cc(OC)c1O` [Example 31, 6-(4-Chloro-phenyl)-2-[1-(4-hydroxy-3-methoxy-5-propoxy-phenyl)-meth-(Z)-ylidene]-imidazo[2,1-b]thiazol-3-one]: the IC50 was 12 nM in assay [1] and 3 nM in assay [2].

For `COc1cc(/C=c2\sc3nc(-c4cc(F)cc(F)c4)cn3c2=O)cc(Cl)c1O` [Example 49, 2-[1-(3-Chloro-4-hydroxy-5-methoxy-phenyl)-meth-(Z)-ylidene]-6-(3,5-difluoro-phenyl)-imidazo[2,1-b]thiazol-3-one], the half-inhibitory concentration (IC50) came to 1370 nM in assay [1] and 16 nM in assay [2].

On to `COc1cc(/C=c2\sc3nc(-c4ccc(C(=O)O)cc4)cn3c2=O)cc(Cl)c1O` [Example 98, 4-{2-[1-(3-Chloro-4-hydroxy-5-methoxy-phenyl)-meth-(Z)-ylidene]-3-oxo-2,3-dihydro-imidazo[2,1-b]thiazol-6-yl}-benzoic acid], for which the IC50 amounted to 1850 nM in assay [1] and 21 nM in assay [2].

Turning to `COc1cc(/C=c2\sc3nc(-c4ccc(C(N)=O)cc4)cn3c2=O)cc(Cl)c1O` [Example 101, 4-{2-[1-(3-Chloro-4-hydroxy-5-methoxy-phenyl)-meth-(Z)-ylidene]-3-oxo-2,3-dihydro-imidazo[2,1-b]thiazol-6-yl}-benzamide], the half-maximal inhibitory concentration (IC50) in assay [1] came to 792 nM; in assay [2], 2 nM.

`COc1cc(/C=c2\sc3nc(-c4cccc(C(F)(F)F)c4)cn3c2=O)cc(F)c1O` [Example 41, 2-[1-(3-fluoro-4-hydroxy-5-methoxy-phenyl)-meth-(Z)-ylidene]-6-(3-(trifluoromethyl)-phenyl)-imidazo[2,1-b]thiazol-3-one]: the IC50 in assay [1] was determined as 1810 nM; in assay [2], 16 nM.

Turning to `COc1cc(/C=c2\sc3nc(-c4ccc(Cl)cc4)cn3c2=O)cc(O)c1O` [Example 8, 6-(4-Chloro-phenyl)-2-[1-(3,4-dihydroxy-5-methoxy-phenyl)-meth-(Z)-ylidene]-imidazo[2,1-b]thiazol-3-one], the IC50 amounted to 18 nM in assay [1] and 5 nM in assay [2].

`COc1cc(/C=c2\sc3nc(-c4cccc(N5CCCC5=O)c4)cn3c2=O)cc(Cl)c1O` [Example 94, 2-[1-(3-Chloro-4-hydroxy-5-methoxy-phenyl)-meth-(Z)-ylidene]-6-[3-(2-oxo-pyrrolidin-1-yl)-phenyl]-imidazo[2,1-b]thiazol-3-one]: the IC50 in assay [1] amounted to 3890 nM; in assay [2] it was 42 nM.

In the case of `COc1cc(/C=c2\sc3nc(-c4cccc(N5CCOCC5)c4)cn3c2=O)cc(Cl)c1O` [Example 89, 2-[1-(3-Chloro-4-hydroxy-5-methoxy-phenyl)-meth-(Z)-ylidene]-6-(3-morpholinophenyl)-imidazo[2,1-b]thiazol-3-one], the IC50 was determined as 356 nM in assay [1] and 24 nM in assay [2].
